The nature of series [1]: Antiproliferative activity against mouse KC-0116 cells assessed as inhibition of cell growth incubated for 72 hrs by MTT assay. The format is functional, cell-based. The conditions noted are these: KC-0116, 72 h. (Formazan colour is commonly taken as a measure of viable cells.)
For series [2], the system named is A-431. Nature of the series: Antiproliferative activity against human A-431 cells harboring wild type EGFR assessed as inhibition of cell growth incubated for 72 hrs by MTT assay. It counts as functional, cell-based. The conditions noted are these: A-431, 72 h.
Series [3] relates to HCC827. Put plainly: Antiproliferative activity against human HCC827 cells harboring EGFR Del19 mutant assessed as inhibition of cell growth incubated for 72 hrs by MTT assay. The conditions noted are these: HCC827, 72 h. It counts as functional, cell-based.
The subject of series [4] is HepG2. Nature of the series: Antiproliferative activity against human HepG2 cells harboring VEGFR assessed as inhibition of cell growth incubated for 72 hrs by MTT assay. It counts as functional, cell-based. The conditions noted are these: HepG2, 72 h.
Series [5] is described as follows: Antiproliferative activity against mouse KC-0122 cells assessed as inhibition of cell growth incubated for 72 hrs by MTT assay. It counts as functional, cell-based. The conditions noted are these: KC-0122, 72 h.
In series [6] the test system is NCI-H1975. Nature of the series: Antiproliferative activity against human NCI-H1975 cells harboring EGFR L858R/T790M mutant assessed as inhibition of cell growth incubated for 72 hrs by MTT assay. It counts as functional, cell-based. The conditions noted are these: NCI-H1975, 72 h.
Series [7] has as its target Epidermal growth factor receptor (Mus musculus) (UniProt Q01279). Nature of the series: Inhibition of EGFR in mouse KC-0116 cells assessed as downregulation of EGFR phosphorylation level incubated for 24 hrs by Western blotting analysis. It counts as cell-based. In general terms: A western blot detects proteins with antibodies after separation by electrophoresis.
For series [8] the target is unchanged. Put plainly: Inhibition of EGFR in mouse KC-0122 cells assessed as downregulation of EGFR phosphorylation level incubated for 24 hrs by Western blotting analysis. It counts as cell-based.
For series [9] the target is unchanged. Put plainly: Inhibition of EGFR in mouse KC-0116 cells assessed as downregulation of AKT protein expression level incubated for 24 hrs by Western blotting analysis. The format is cell-based.
The target is the same in series [10]. Nature of the series: Inhibition of EGFR in mouse KC-0122 cells assessed as downregulation of AKT protein expression level incubated for 24 hrs by Western blotting analysis. It counts as cell-based.
Series [11] has the same target. Nature of the series: Inhibition of EGFR in mouse KC-0116 cells assessed as downregulation of ERK protein expression level incubated for 24 hrs by Western blotting analysis. It counts as cell-based.
Series [12] has the same target. Put plainly: Inhibition of EGFR in mouse KC-0122 cells assessed as downregulation of ERK protein expression level incubated for 24 hrs by Western blotting analysis. The format is cell-based.
A short description of series [13]: Induction of apoptosis in mouse KC-0116 cells assessed as viable cells at 1 uM incubated for 48 hrs by annexin V-FITC/ PI staining based flow cytometry (reference value: 93.27 %). It counts as functional. On the technique in general: Flow cytometry measures light scatter and fluorescence of single cells or particles in a stream.
The nature of series [14]: Induction of apoptosis in mouse KC-0116 cells assessed as early apoptotic cells at 1 uM incubated for 48 hrs by annexin V-FITC/ PI staining based flow cytometry (reference value: 8.09 %). The format is functional.
Series [15] is described as follows: Induction of apoptosis in mouse KC-0116 cells assessed as late apoptotic cells at 1 uM incubated for 48 hrs by annexin V-FITC/ PI staining based flow cytometry (reference value: 1 %). It counts as functional.
Series [16] in a line: Induction of apoptosis in mouse KC-0116 cells assessed as necrotic cells at 1 uM incubated for 48 hrs by annexin V-FITC/ PI staining based flow cytometry (reference value: 0.04 %). It counts as functional.
Series [17] in a line: Induction of apoptosis in mouse KC-0116 cells assessed as viable cells at 0.3 uM incubated for 48 hrs by annexin V-FITC/ PI staining based flow cytometry (reference value: 93.27 %). It counts as functional.
Series [18] in a line: Induction of apoptosis in mouse KC-0116 cells assessed as early apoptotic cells at 0.3 uM incubated for 48 hrs by annexin V-FITC/ PI staining based flow cytometry (reference value: 8.09 %). The format is functional.
Series [19] is described as follows: Induction of apoptosis in mouse KC-0116 cells assessed as late apoptotic cells at 0.3 uM incubated for 48 hrs by annexin V-FITC/ PI staining based flow cytometry (reference value: 1 %). It counts as functional.
Series [20] can be described thus: Induction of apoptosis in mouse KC-0116 cells assessed as necrotic cells at 0.3 uM incubated for 48 hrs by annexin V-FITC/ PI staining based flow cytometry (reference value: 0.04 %). The format is functional.
Series [21] can be described thus: Toxicity in BALB/c mouse xenografted with mouse KC-0116 cells assessed as change in body weight at 10 mg/kg,po administrated once daily for 10 days. The format is organism-based. The conditions noted are these: in vivo, 240 h, time 10 day.

Epidermal growth factor receptor (Mus musculus), sequence (Q01279 whole entry): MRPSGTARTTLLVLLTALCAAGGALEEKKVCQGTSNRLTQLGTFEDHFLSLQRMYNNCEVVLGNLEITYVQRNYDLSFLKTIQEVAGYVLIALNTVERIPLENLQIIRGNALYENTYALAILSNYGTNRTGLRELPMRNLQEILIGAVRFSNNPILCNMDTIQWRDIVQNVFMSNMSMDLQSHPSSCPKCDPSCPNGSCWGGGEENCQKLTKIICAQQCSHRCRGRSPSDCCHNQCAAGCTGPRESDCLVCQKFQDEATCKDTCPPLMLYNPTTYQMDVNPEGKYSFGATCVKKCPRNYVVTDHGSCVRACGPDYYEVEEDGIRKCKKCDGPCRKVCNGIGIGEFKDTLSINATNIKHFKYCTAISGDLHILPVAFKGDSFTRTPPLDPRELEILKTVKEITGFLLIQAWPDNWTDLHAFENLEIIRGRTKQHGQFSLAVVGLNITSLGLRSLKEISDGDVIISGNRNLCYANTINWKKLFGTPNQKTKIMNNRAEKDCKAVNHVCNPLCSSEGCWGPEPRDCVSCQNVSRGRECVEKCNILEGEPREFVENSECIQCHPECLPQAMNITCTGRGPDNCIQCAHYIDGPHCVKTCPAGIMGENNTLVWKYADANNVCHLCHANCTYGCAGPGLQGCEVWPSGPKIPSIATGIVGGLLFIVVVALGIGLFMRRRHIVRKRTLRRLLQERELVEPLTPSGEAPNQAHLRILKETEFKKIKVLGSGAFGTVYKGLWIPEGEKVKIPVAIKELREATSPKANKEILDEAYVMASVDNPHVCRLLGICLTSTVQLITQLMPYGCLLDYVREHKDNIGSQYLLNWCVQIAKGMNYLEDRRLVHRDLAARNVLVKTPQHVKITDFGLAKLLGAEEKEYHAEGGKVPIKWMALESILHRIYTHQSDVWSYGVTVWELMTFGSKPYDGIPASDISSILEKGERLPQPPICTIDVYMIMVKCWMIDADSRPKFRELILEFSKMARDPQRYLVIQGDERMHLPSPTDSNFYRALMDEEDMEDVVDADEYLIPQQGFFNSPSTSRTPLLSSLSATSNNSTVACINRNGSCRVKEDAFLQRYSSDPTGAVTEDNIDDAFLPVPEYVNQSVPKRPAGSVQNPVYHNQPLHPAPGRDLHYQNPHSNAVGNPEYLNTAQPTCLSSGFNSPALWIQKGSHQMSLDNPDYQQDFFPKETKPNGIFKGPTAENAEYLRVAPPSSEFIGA

Consider `C=CC(=O)Nc1cc(Nc2nccc(-c3cn(C)c4ccccc34)n2)c(OC)cc1N(C)CCN(C)C` [OSIMERTINIB], for which the IC50 (as a rule, the concentration that gives 50% inhibition) in [1] is […]; in series [2], […]; in series [3] it was 1 nM; in series [4], 3060 nM.
As to `Cn1cc(-c2ccnc(Nc3ccc(N4CCOCC4)cc3)n2)c2ccccc21`, the half-inhibitory concentration (IC50) in series [1] was 7000 nM; in [5], above 10000 nM.
For `COc1cc(OCCN(C)C)c(NC(=O)CN)cc1Nc1nccc(-c2cn(C)c3ccccc23)n1`, the concentration for half-maximal inhibition (IC50) in [1] came out at 1500 nM; in series [5], 5450 nM.
The like results for `COc1cc(N(C)CCN(C)C)c(NC(=O)CNC(=O)OC(C)(C)C)cc1Nc1nccc(-c2cn(C)c3ccccc23)n1` were, in that order, 1290 nM and 1280 nM.
On to `CN(C)C1CCN(c2ccc(Nc3nccc(-c4cn(C)c5ccccc45)n3)cc2)CC1`, for which the figures for the IC50 in series [1] and in [5] were 400 nM and 450 nM, respectively.
`CN1CCN(c2ccc(Nc3nccc(-c4cn(C)c5ccccc45)n3)cc2)CC1`: the half-inhibitory concentration (IC50) worked out at 380 nM in series [1] and 540 nM in [5].
As to `COc1ccc(NC(=O)CCN)cc1Nc1nccc(-c2cn(C)c3ccccc23)n1`, the IC50 was 1460 nM in series [1] and 1230 nM in [5].
In the case of `COc1cc2c(cc1Nc1nccc(-c3cn(C)c4ccccc34)n1)NC(=O)CCCCCN2CCN(C)C`, the IC50 in series [1] came out at 2360 nM; in series [5], 2840 nM.
On to `CN1CCN(C2CCN(c3ccc(Nc4nccc(-c5cn(C)c6ccccc56)n4)cc3)CC2)CC1`, for which the concentration for half-maximal inhibition (IC50) worked out at 840 nM in [1] and 1310 nM in series [5].
For `CN(C)CCN(c1ccc(Nc2nccc(-c3cn(C)c4ccccc34)n2)cc1)S(C)(=O)=O`, the half-inhibitory concentration (IC50) was found to be 430 nM in series [1] and 500 nM in series [5].
`COc1cc(N2CCN(C)CC2)c(NC(=O)CN)cc1Nc1nccc(-c2cn(C)c3ccccc23)n1`: the half-inhibitory concentration (IC50) in series [1] is 1650 nM; in series [5], 1170 nM.
The matching figures for `COc1cc(N(C)CCN(C)C)c(NC(=O)CNC(C)=O)cc1Nc1nccc(-c2cn(C)c3ccccc23)n1`: 1980 nM and 1450 nM.
On to `COCC(=O)Nc1cc(Nc2nccc(-c3cn(C)c4ccccc34)n2)c(OC)cc1N1CCC(N(C)C)CC1`, for which the figures for the 50% inhibitory concentration (IC50) in series [1] and in series [5] were 460 nM and 450 nM, respectively.
The like results for `CN(C)C1CCN(c2ccc(Nc3nccc(-c4cn(C)c5ccccc45)n3)cc2NC(=O)CN)CC1` were, in that order, 440 nM and 460 nM.
As to `COc1cc(N(C)CCN(C)C)c(NC(=O)CCN)cc1Nc1nccc(-c2cn(C)c3ccccc23)n1`, the IC50 in [1] was determined as 1490 nM; in [5] it was 1630 nM.
For `CN(C)CCOc1ccc(Nc2nccc(-c3cn(C)c4ccccc34)n2)cc1`, the half-maximal inhibitory concentration (IC50) in [1] stood at 1290 nM; in series [5], 1750 nM.
For `COc1cc(N(C)CCN(C)C)c(NC(=O)CO)cc1Nc1nccc(-c2cn(C)c3ccccc23)n1`, the IC50 in series [1] is 1390 nM; in series [5], 3090 nM.
The like results for `COc1cc(N2CCC(N3CCN(C)CC3)CC2)ccc1Nc1nccc(-c2cn(C)c3ccccc23)n1` were, in that order, 1170 nM and 1390 nM.
The like results for `Cn1cc(-c2ccnc(Nc3ccc(N4CCC(N5CCOCC5)CC4)cc3)n2)c2ccccc21` were, in that order, 1710 nM and 5740 nM.
In the case of `CN(C)C1CCN(c2ccc(Nc3nccc(-c4cn(C)c5ccccc45)n3)cc2NS(=O)(=O)C2CC2)CC1`, the IC50 in [1] was 240 nM; in series [5], 250 nM; in [2], 2490 nM; in series [3], 220 nM; in series [6] it was 1420 nM; in series [4], 1920 nM.
As to `Cn1cc(-c2ccnc(Nc3cccc(NC(=O)CCN)c3)n2)c2ccccc21`, the figures for the half-inhibitory concentration (IC50) in series [1] and in [5] were 4990 nM and 4770 nM, respectively.
`Cn1cc(-c2ccnc(Nc3ccc(N4CCCCC4)cc3)n2)c2ccccc21`: the concentration for half-maximal inhibition (IC50) in series [1] and in series [5] was above 10000 nM throughout.
Regarding `CN(C)CCN(C)c1ccc(Nc2nccc(-c3cn(C)c4ccccc34)n2)cc1`, the IC50 in [1] stood at 1060 nM; in series [5], 1550 nM.
For the compound `COc1cc(N(C)CCN(C)C)ccc1Nc1nccc(-c2cn(C)c3ccccc23)n1`, the IC50 in series [1] came to 1760 nM; in [5], 1610 nM.
As for `CN(C)C1CCN(c2ccc(Nc3nccc(-n4cc(NC(=O)c5ccccc5)cn4)n3)cc2NS(C)(=O)=O)CC1`, the IC50 in series [1] stood at 520 nM; in series [5], 490 nM.
In the case of `COc1cc(N2CCC(N(C)C)CC2)c(NC(=O)CO)cc1Nc1nccc(-c2cn(C)c3ccccc23)n1`, the IC50 was 460 nM in series [1] and 480 nM in series [5].
The matching figures for `COc1cc(N(C)CCN(C)C)c(NC(=O)CN)cc1Nc1nccc(-c2cn(C)c3ccccc23)n1`: 1320 nM and 2720 nM.
Regarding `CN1CCN(C2CCN(c3ccc(Nc4nccc(-c5cn(C)c6ccccc56)n4)cc3NS(=O)(=O)C3CC3)CC2)CC1`, the concentration for half-maximal inhibition (IC50) came out at 170 nM in [1]; 200 nM in series [5]; 2130 nM in series [2]; 310 nM in series [3]; 1020 nM in series [6]; 1500 nM in series [4]. The inhibition entry in [7], in [8], in series [9], in [10], in series [11] and in series [12] was “Dose-Dependent Effect” in each case.
With `COc1ccc(NC(=O)CN)cc1Nc1nccc(-c2cn(C)c3ccccc23)n1`, the figures for the IC50 in series [1] and in series [5] were 3760 nM and 5280 nM, respectively.
In the case of `COc1cc(N(C)CCN(C)C)c(NC(=O)CNS(C)(=O)=O)cc1Nc1nccc(-c2cn(C)c3ccccc23)n1`, the IC50 in series [1] came out at 1550 nM; in [5], 1170 nM.
As to `Cn1cc(-c2ccnc(Nc3cccc(NS(=O)(=O)C4CC4)c3)n2)c2ccccc21`, the figures for the 50% inhibitory concentration (IC50) in series [1] and in [5] were 580 nM and 1200 nM, respectively.
Turning to `COc1cc(N2CCC(N3CCN(C)CC3)CC2)ccc1Nc1ncc(Cl)c(Nc2ccccc2P(C)(C)=O)n1` [BRIGATINIB], the 50% inhibitory concentration (IC50) in series [1] was 350 nM; in [5], 450 nM. Moreover, the Activity was determined as 65.74% in series [13]; 26.61% in series [14]; 7.32% in [15]; 0.32% in series [16]; 92.51% in series [17]; 6.75% in [18]. In addition, the Activity is on record as 1.71% in series [19], 0.01% in series [20] and “Non-Toxic” in series [21].
Regarding `CC(=O)N1CCN(c2ccc(Nc3nccc(-c4cn(C)c5ccccc45)n3)cc2)CC1`, the half-maximal inhibitory concentration (IC50) in [1] is 1050 nM; in series [5], 1500 nM.

These data come from ChEMBL document CHEMBL5634136 (Eur J Med Chem, 2023).
